Test system: 192522-019-R-J2-PDC complex tumor spheroid viability
Assay: Anticancer human tumor 192522-019-R-J2-PDC patient-derived colon adenocarcinoma cell line growth inhibition [POLQ]
Conditions: for IC50: curve of first compound; for viability, T/C: stronger effect = lower value
Summary of the method: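 Patient-derived tumour cells were co-cultured with HUVEC and mesenchymal stem cells as multicellular spheroids at 37 °C. They were treated with POLQ inhibitors (novobiocin, ART-558, RP6685) alone or combined with other agents. Top concentrations were at or near clinical Cmax (otherwise 10 microM; SN-38 at 1 microM), decreasing in half-log steps.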

[1] = second compound 0.0316 µM, first compound 0.0316 µM
[2] = second compound 0.0316 µM, first compound 0.1 µM
[3] = second compound 0.0316 µM, first compound 0.316 µM
[4] = second compound 0.0316 µM, first compound 1 µM
[5] = second compound 0.0316 µM, first compound 3.16 µM
[6] = second compound 0.0316 µM, first compound 10 µM
[7] = second compound 0.1 µM, first compound 0.0316 µM
[8] = second compound 0.1 µM, first compound 0.1 µM
[9] = second compound 0.1 µM, first compound 0.316 µM
[10] = second compound 0.1 µM, first compound 1 µM
[11] = second compound 0.1 µM, first compound 3.16 µM
[12] = second compound 0.1 µM, first compound 10 µM
[13] = second compound 0.316 µM, first compound 0.0316 µM
[14] = second compound 0.316 µM, first compound 0.1 µM
[15] = second compound 0.316 µM, first compound 0.316 µM
[16] = second compound 0.316 µM, first compound 1 µM
[17] = second compound 0.316 µM, first compound 3.16 µM
[18] = second compound 0.316 µM, first compound 10 µM
[19] = second compound 1 µM, first compound 0.0316 µM
[20] = second compound 1 µM, first compound 0.1 µM
[21] = second compound 1 µM, first compound 0.316 µM
[22] = second compound 1 µM, first compound 1 µM
[23] = second compound 1 µM, first compound 3.16 µM
[24] = second compound 1 µM, first compound 10 µM
[25] = second compound 3.16 µM, first compound 0.0316 µM
[26] = second compound 3.16 µM, first compound 0.1 µM
[27] = second compound 3.16 µM, first compound 0.316 µM
[28] = second compound 3.16 µM, first compound 1 µM
[29] = second compound 3.16 µM, first compound 3.16 µM
[30] = second compound 3.16 µM, first compound 10 µM
[31] = second compound 10 µM, first compound 0.0316 µM
[32] = second compound 10 µM, first compound 0.1 µM
[33] = second compound 10 µM, first compound 0.316 µM
[34] = second compound 10 µM, first compound 1 µM
[35] = second compound 10 µM, first compound 3.16 µM
[36] = second compound 10 µM, first compound 10 µM
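Further: spheroids exposed to drugs for seven days before reading.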
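Wherever viability, T/C is given: 100% = DMSO vehicle control viability in luminescence.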

In the case of `CC(=O)O[C@H]1C(=O)[C@@]2(C)[C@H]([C@H](OC(=O)c3ccccc3)[C@]3(O)C[C@H](OC(=O)[C@H](O)[C@@H](NC(=O)c4ccccc4)c4ccccc4)C(C)=C1C3(C)C)[C@]1(OC(C)=O)CO[C@@H]1C[C@@H]2O` + Nc1ccc(C#CCN(C(=O)Cc2ncc(C(F)(F)F)cc2C(F)(F)F)c2ccc(F)cc2)nn1, the IC50 (second compound 0.0316 µM) is reported as > 3 µM, the IC50 (second compound 0.1 µM) is reported as > 3 µM and the IC50 (second compound 0.316 µM) is reported as > 3 µM. For the same compound, the IC50 (second compound 1 µM) was > 3 µM, the IC50 (second compound 3.16 µM) was > 3 µM and the IC50 (second compound 10 µM) was > 3 µM. For the same compound, the viability, T/C (second compound 0.0316 µM, first compound 0.00949 µM) was 95.6%, the viability, T/C (second compound 0.0316 µM, first compound 0.03 µM) was 65.1% and the viability, T/C (second compound 0.0316 µM, first compound 0.0949 µM) was 50.2%. The viability, T/C (second compound 0.0316 µM, first compound 0.3 µM) was 57%, the viability, T/C (second compound 0.0316 µM, first compound 0.949 µM) was 56.9% and the viability, T/C (second compound 0.0316 µM, first compound 3 µM) was 60.2%. It also gave a viability, T/C (second compound 0.1 µM, first compound 0.00949 µM) of 95.3%, a viability, T/C (second compound 0.1 µM, first compound 0.03 µM) of 63.3% and a viability, T/C (second compound 0.1 µM, first compound 0.0949 µM) of 55.4%. For the same compound, the viability, T/C (second compound 0.1 µM, first compound 0.3 µM) was 54.8%, the viability, T/C (second compound 0.1 µM, first compound 0.949 µM) was 61.2% and the viability, T/C (second compound 0.1 µM, first compound 3 µM) was 50.2%. For the same compound, the viability, T/C (second compound 0.316 µM, first compound 0.00949 µM) was 88.7%, the viability, T/C (second compound 0.316 µM, first compound 0.03 µM) was 69.6% and the viability, T/C (second compound 0.316 µM, first compound 0.0949 µM) was 54.2%. For the same compound, the viability, T/C (second compound 0.316 µM, first compound 0.3 µM) was 58.2%, the viability, T/C (second compound 0.316 µM, first compound 0.949 µM) was 57.9% and the viability, T/C (second compound 0.316 µM, first compound 3 µM) was 54.9%. For the same compound, the viability, T/C (second compound 1 µM, first compound 0.00949 µM) was 86.3%, the viability, T/C (second compound 1 µM, first compound 0.03 µM) was 62.6% and the viability, T/C (second compound 1 µM, first compound 0.0949 µM) was 53.7%. The viability, T/C (second compound 1 µM, first compound 0.3 µM) was 51.3%, the viability, T/C (second compound 1 µM, first compound 0.949 µM) was 57.4% and the viability, T/C (second compound 1 µM, first compound 3 µM) was 50.9%. It also gave a viability, T/C (second compound 3.16 µM, first compound 0.00949 µM) of 85.5%, a viability, T/C (second compound 3.16 µM, first compound 0.03 µM) of 65.7% and a viability, T/C (second compound 3.16 µM, first compound 0.0949 µM) of 55.8%. It also gave a viability, T/C (second compound 3.16 µM, first compound 0.3 µM) of 54.6%, a viability, T/C (second compound 3.16 µM, first compound 0.949 µM) of 59.2% and a viability, T/C (second compound 3.16 µM, first compound 3 µM) of 56%. It also gave a viability, T/C (second compound 10 µM, first compound 0.00949 µM) of 80%, a viability, T/C (second compound 10 µM, first compound 0.03 µM) of 66.3% and a viability, T/C (second compound 10 µM, first compound 0.0949 µM) of 60.2%. The viability, T/C (second compound 10 µM, first compound 0.3 µM) was 61.2%, the viability, T/C (second compound 10 µM, first compound 0.949 µM) was 60.9% and the viability, T/C (second compound 10 µM, first compound 3 µM) was 56.5%.
For `CC1COCCN1c1cc(C2(S(C)(=N)=O)CC2)nc(-c2ccnc3[nH]ccc23)n1` (stereo not drawn) + COC1C(OC(N)=O)C(O)C(Oc2ccc3c(O)c(NC(=O)c4ccc(O)c(CC=C(C)C)c4)c(=O)oc3c2C)OC1(C)C, the IC50 (second compound 0.0316 µM) was 4.72 µM, the IC50 (second compound 0.1 µM) was 4.58 µM and the IC50 (second compound 0.316 µM) was 3.33 µM. The IC50 (second compound 1 µM) was 5.31 µM, the IC50 (second compound 3.16 µM) was 5.42 µM and the IC50 (second compound 10 µM) was 5.18 µM. For the same compound, the viability, T/C [1] was 108%, the viability, T/C [2] was 94.3% and the viability, T/C [3] was 99.6%. For the same compound, the viability, T/C [4] was 97.3%, the viability, T/C [5] was 61.3% and the viability, T/C [6] was 28.7%. It also gave a viability, T/C [7] of 118%, a viability, T/C [8] of 99% and a viability, T/C [9] of 103%. For the same compound, the viability, T/C [10] was 95.4%, the viability, T/C [11] was 56.2% and the viability, T/C [12] was 36.1%. The viability, T/C [13] was 103%, the viability, T/C [14] was 99.2% and the viability, T/C [15] was 108%. For the same compound, the viability, T/C [16] was 95.8%, the viability, T/C [17] was 51% and the viability, T/C [18] was 31.9%. The viability, T/C [19] was 101%, the viability, T/C [20] was 103% and the viability, T/C [21] was 99%. For the same compound, the viability, T/C [22] was 97.3%, the viability, T/C [23] was 63.1% and the viability, T/C [24] was 34%. The viability, T/C [25] was 102%, the viability, T/C [26] was 109% and the viability, T/C [27] was 104%. It also gave a viability, T/C [28] of 91.8%, a viability, T/C [29] of 60.9% and a viability, T/C [30] of 37.8%. For the same compound, the viability, T/C [31] was 104%, the viability, T/C [32] was 103% and the viability, T/C [33] was 114%. For the same compound, the viability, T/C [34] was 95.7%, the viability, T/C [35] was 62.9% and the viability, T/C [36] was 33.2%.
`O=C(c1cc(Cc2n[nH]c(=O)c3ccccc23)ccc1F)N1CCN(C(=O)C2CC2)CC1` + Nc1ccc(C#CCN(C(=O)Cc2ncc(C(F)(F)F)cc2C(F)(F)F)c2ccc(F)cc2)nn1 was tested, and the IC50 (second compound 0.0316 µM) was > 10 µM, the IC50 (second compound 0.1 µM) was > 10 µM and the IC50 (second compound 0.316 µM) was > 10 µM. The IC50 (second compound 1 µM) was > 10 µM, the IC50 (second compound 3.16 µM) was > 10 µM and the IC50 (second compound 10 µM) was > 10 µM. For the same compound, the viability, T/C [1] was 105%, the viability, T/C [2] was 116% and the viability, T/C [3] was 106%. It also gave a viability, T/C [4] of 105%, a viability, T/C [5] of 111% and a viability, T/C [6] of 104%. For the same compound, the viability, T/C [7] was 108%, the viability, T/C [8] was 104% and the viability, T/C [9] was 102%. For the same compound, the viability, T/C [10] was 102%, the viability, T/C [11] was 110% and the viability, T/C [12] was 105%. The viability, T/C [13] was 117%, the viability, T/C [14] was 105% and the viability, T/C [15] was 101%. For the same compound, the viability, T/C [16] was 112%, the viability, T/C [17] was 111% and the viability, T/C [18] was 95.6%. It also gave a viability, T/C [19] of 110%, a viability, T/C [20] of 102% and a viability, T/C [21] of 97.3%. For the same compound, the viability, T/C [22] was 104%, the viability, T/C [23] was 114% and the viability, T/C [24] was 106%. The viability, T/C [25] was 116%, the viability, T/C [26] was 104% and the viability, T/C [27] was 103%. For the same compound, the viability, T/C [28] was 105%, the viability, T/C [29] was 106% and the viability, T/C [30] was 113%. For the same compound, the viability, T/C [31] was 107%, the viability, T/C [32] was 111% and the viability, T/C [33] was 110%. The viability, T/C [34] was 103%, the viability, T/C [35] was 110% and the viability, T/C [36] was 110%.
For `COc1cc2cc(C(=O)CCC(=O)O)sc2cc1OC` + Cc1cccc(N(C)C(=O)C2C(O)CCN2c2nc(C)cc(C(F)(F)F)c2C#N)c1, the IC50 (second compound 0.0316 µM) was > 10 µM, the IC50 (second compound 0.1 µM) was > 10 µM and the IC50 (second compound 0.316 µM) was > 10 µM. For the same compound, the IC50 (second compound 1 µM) was > 10 µM, the IC50 (second compound 3.16 µM) was > 10 µM and the IC50 (second compound 10 µM) was > 10 µM. For the same compound, the viability, T/C [1] was 114%, the viability, T/C [2] was 97.4% and the viability, T/C [3] was 94.9%. For the same compound, the viability, T/C [4] was 95.8%, the viability, T/C [5] was 98.7% and the viability, T/C [6] was 92.5%. For the same compound, the viability, T/C [7] was 107%, the viability, T/C [8] was 99.6% and the viability, T/C [9] was 96.1%. The viability, T/C [10] was 110%, the viability, T/C [11] was 103% and the viability, T/C [12] was 107%. It also gave a viability, T/C [13] of 102%, a viability, T/C [14] of 100% and a viability, T/C [15] of 93.8%. The viability, T/C [16] was 101%, the viability, T/C [17] was 104% and the viability, T/C [18] was 110%. It also gave a viability, T/C [19] of 101%, a viability, T/C [20] of 106% and a viability, T/C [21] of 97.7%. It also gave a viability, T/C [22] of 108%, a viability, T/C [23] of 108% and a viability, T/C [24] of 105%. The viability, T/C [25] was 108%, the viability, T/C [26] was 104% and the viability, T/C [27] was 96.3%. For the same compound, the viability, T/C [28] was 96.6%, the viability, T/C [29] was 101% and the viability, T/C [30] was 105%. The viability, T/C [31] was 103%, the viability, T/C [32] was 102% and the viability, T/C [33] was 103%. The viability, T/C [34] was 102%, the viability, T/C [35] was 111% and the viability, T/C [36] was 97.4%.

Source: PubChem BioAssay AID1963850 (Molecular Pharmacology Branch, DTP, NCI, 2024)
